The values that follow come from patent publication US8372811B2, “Composition for treating retinopathy or glaucoma comprising thrombin derived peptides” (Eyegene, Inc., priority 2007, dated 2013).

“Also recorded” adds a separate entry of the source. Non-standard residues stand in square brackets, D forms with d. No end group written: not given here.

This assay concerns mouse retinal angiogenesis. Briefly: Mouse model for inducing retinal angiogenesis using oxygen partial pressure (75% oxygen, then normal 20%); FITC-dextran fluorescence microscopy of retina. The format is in vivo. The following applies: intraperitoneally; for retinal blood vessels observed (Example 3): FIG. 2 and FIG. 5; for retinal blood vessels observed (Example 3) / retinal blood vessels observed (Example 2): dose not given; for retinal blood vessels observed (Example 2): FIG. 4; for effect compared between polypeptides SEQ ID NOs: 1, 2 and SEQ ID NO: 3 (Example 2): FIG. 4 versus FIG. 2. The method, then: For this purpose, a mouse was kept for 5 days under a high oxygen environment with a constant 75% oxygen partial pressure 7 days after the mouse was born in an apparatus that can adjust an oxygen partial pressure, and then kept under a 20% oxygen pressure which is a normal oxygen partial pressure. […] In order to observe the blood vessels, 50 mg of FITC-dextran having a molecular weight of 2×10^6 was dissolved in 1 ml of saline, and the resultant solution was injected through the left ventricle. The mouse eyeball was extracted immediately after the injection. The extracted eyeball was washed with saline, fixed with 1% paraformaldehyde for 4 to 24 hours, and then a lens was removed from the eyeball. Then, the resultant mouse retina was evenly spread over a glass slide, and the glass slide was sealed with glycerine-gelatin, and then observed using a fluorescence microscope. The degree on abnormal vessel, avascular lesion and vascular leakage caused by the retinopathy was digitalized and the retinopathy score was compared.

For the substance “DEGKRGDGDACEGDS [SEQ ID NO: 6, smaller peptide than the TP508; chemical synthesis]”, the “effect compared with TP508 (SEQ ID NO: 3) (Example 3)” value is “had a similar effect as the TP508”; the “retinal blood vessels observed (Example 3)” value is “normal angiogenesis is induced but abnormal angiogenesis is suppressed and the vascular leakage is decreased; also recorded: the abnormal angiogenesis, avascular lesion and vascular leakage were decreased and the normal blood vessels were observed”.
Take Thrombin [SEQ ID NO: 4]: the “effect compared with TP508 (SEQ ID NO: 3) (Example 3)” value is recorded as “had a similar effect as the TP508”; the “retinal blood vessels observed (Example 3)” value is “normal angiogenesis is induced but abnormal angiogenesis is suppressed and the vascular leakage is decreased; also recorded: the abnormal angiogenesis, avascular lesion and vascular leakage were decreased and the normal blood vessels were observed”.
Turning to “H-Gly-Phe-Gly-Arg-Gly-Asp-Ser-Pro-Cys-Ala-OH (H-GFGRGDSPCA-OH) [SEQ ID NO: 2]”, the “retinal blood vessels observed (Example 2)” value is “normal angiogenesis is induced but abnormal angiogenesis is suppressed; also recorded: the abnormal angiogenesis was decreased and the normal blood vessels were observed”; the “effect compared between polypeptides SEQ ID NOs: 1, 2 and SEQ ID NO: 3 (Example 2)” value is on record as “the same advantageous effect”.
Regarding “Cyclo(-Arg-Gly-Asp-D-Phe-Val) (cyclo(RGD[dF]V)) [SEQ ID NO: 1]”, the “retinal blood vessels observed (Example 2)” value was “normal angiogenesis is induced but abnormal angiogenesis is suppressed; also recorded: the abnormal angiogenesis was decreased and the normal blood vessels were observed”; the “effect compared between polypeptides SEQ ID NOs: 1, 2 and SEQ ID NO: 3 (Example 2)” value was “the same advantageous effect”.
